Measured values taken from ChEMBL document CHEMBL1153818, “Integration of ligand and structure-based virtual screening for the identification of the first dual targeting agent for heat shock protein 90 (Hsp90) and tubulin” (J Med Chem, 2009).
The source made the active and inactive calls. The calls are words filed in the database; no cut-off is given here.

Key:
[1] = target: Heat shock protein HSP 90-beta (Homo sapiens, UniProt P08238); experiment: Inhibition of Hsp90 by FP ATP-site binding assay
MCF7 [2] = experiment: Induction of ERalpha degradation in human MCF7 cells at 200 uM after 24 hrs by Western blot analysis; format: functional, cell-based
Bos taurus = species on record: Bos taurus; experiment: Inhibition of bovine tubulin polymerization
MCF7 [3] = experiment: Induction of ERalpha degradation in human MCF7 cells at 1 uM after 24 hrs by Western blot analysis; format: functional, cell-based

Sequence of Heat shock protein HSP 90-beta (P08238 whole entry): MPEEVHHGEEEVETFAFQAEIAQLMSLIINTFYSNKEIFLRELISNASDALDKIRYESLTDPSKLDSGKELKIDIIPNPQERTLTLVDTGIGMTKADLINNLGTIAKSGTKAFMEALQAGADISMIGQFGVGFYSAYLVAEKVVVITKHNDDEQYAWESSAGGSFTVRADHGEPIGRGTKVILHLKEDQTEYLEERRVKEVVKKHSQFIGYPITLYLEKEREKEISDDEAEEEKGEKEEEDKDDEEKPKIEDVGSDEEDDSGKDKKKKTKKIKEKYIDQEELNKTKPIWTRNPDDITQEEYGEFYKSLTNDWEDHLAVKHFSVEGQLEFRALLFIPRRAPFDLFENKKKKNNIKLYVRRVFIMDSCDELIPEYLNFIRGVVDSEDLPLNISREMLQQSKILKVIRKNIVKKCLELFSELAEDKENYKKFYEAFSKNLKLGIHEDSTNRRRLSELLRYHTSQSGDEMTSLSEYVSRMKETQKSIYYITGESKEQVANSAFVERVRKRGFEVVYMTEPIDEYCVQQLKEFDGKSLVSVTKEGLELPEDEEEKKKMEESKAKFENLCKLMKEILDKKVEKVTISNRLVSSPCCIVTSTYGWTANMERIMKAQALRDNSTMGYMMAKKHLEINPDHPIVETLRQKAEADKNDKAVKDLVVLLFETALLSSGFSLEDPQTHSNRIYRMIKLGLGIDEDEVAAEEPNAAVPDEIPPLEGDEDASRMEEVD

Compound | IC50 [1] | Activity (MCF7 [2]) | Activity (Bos taurus) | Activity (MCF7 [3])
COc1cc(C(=O)n2ncc3cc(N)ccc32)cc(OC)c1OC | 80.8 µM | Active | Dose-dependent effect | –
C=CCNC1=C2C[C@@H](C)C[C@H](OC)[C@H](O)[C@@H](C)/C=C(\C)[C@H](OC(N)=O)[C@@H](OC)/C=C\C=C(/C)C(=O)NC(=CC1=O)C2=O | – | – | – | Active
